Results as given in patent US20100152188A1, “Novel Heterocyclic Compounds” (priority 2005, published 2010).
Like-named read-outs stand apart in the source and are kept apart here.

How the values were obtained:
HDAC = HDAC inhibition; assay type: biochemical; conditions: for HDAC Inhibition 1 μM: compound at 1 μM; for HDAC Inhibition 10 μM: compound at 10 μM
NCIH460 = assay: Anti-cancer screen (MTT), NCIH460; assay type: cell-based; conditions: Homo sapiens, NCI-H460, 48 hours with compound, tested at 0.01-100 µM
In short: (§1)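 Five-point dosing (0.01, 0.1, 1, 10, 100 µM) for 48 h, with triplicate wells and a separate zero-time plate. Viability is read by MTT at 570 nm and expressed as percent growth, from which GI50, TGI and LC50 are taken.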

[1] = test system: NCIH460, HCT116, MDAMB-231/U 251; assay: Anti-cancer screen, mean GI50 over the cell lines; assay type: cell-based; conditions: in µM
In short: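 Growth was scored by MTT absorbance at 570 nm relative to control wells and a pre-treatment T0 reading. Compounds were tested at five final concentrations (0.01–100 µM, triplicate) for 48 h on NCIH460, HCT116 and U251 cells, each plated at 5000 cells/well 24 h before dosing.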

HCT116 = assay: Anti-cancer screen (MTT), HCT116; assay type: cell-based; conditions: Homo sapiens, HCT-116, 48 hours with compound, tested at 0.01-100 µM; for CC50: read-out: HCT116 LC50
In short: as §1

MDAMB-231/U 251 = assay: Anti-cancer screen (MTT), MDAMB-231/U 251; assay type: cell-based; conditions: for CC50: read-out: MDAMB-231/U 251 LC50
In short: as §1

[2] = 48 hours with compound, MTT, tested at 0.01-100 µM

Row | SMILES | HDAC Inhibition 1 μM (HDAC) | HDAC Inhibition 10 μM (HDAC) | GI50 (NCIH460) [µM] | IC (TGI) (NCIH460) [µM] | LC50 (NCIH460) [µM] | Mean GI50 [1] | GI50 (HCT116) [µM] | IC (TGI) (HCT116) [µM] | CC50 (HCT116) [µM] | GI50 (MDAMB-231/U 251; [2]) [µM] | IC (TGI) (MDAMB-231/U 251; [2]) [µM] | CC50 (MDAMB-231/U 251; [2]) [µM] | LC50 (concentration giving 50% net cell kill relative to T0) (HCT116) [µM] | CC50 (MDAMB-231/U 251; 48 h) [µM] | IC50 (HDAC) [nM]
1 | O=C(Cc1csc(NC(=O)OCc2ccc(Br)s2)n1)NO [Example 6, (5-Bromo-2-thienyl)methyl{4-[2-(hydroxyamino)-2-oxoethyl]-1,3-thiazol-2-yl}carbamate] | 8.8 | 47.27 | 2 | 80 | > 100 | 24 | 65 | > 100 | > 100 | 5 | 82 | > 100 | – | – | –
2 | CNC(=O)c1ccc(CNC(=O)OCc2cccs2)cc1 [Example 40, 2-Thienylmethyl{4-[(methylamino)carbonyl]benzyl}carbamate] | −1.9 | 8.6 | > 100 | > 100 | > 100 | >100 | 100 | > 100 | – | 14 | > 100 | – | > 100 | > 100 | –
3 | CC(=O)N(O)C(=O)Cc1csc(NC(=O)OCc2ccc(Br)s2)n1 [Example 78, (5-bromo-2-thienyl)methyl(4-{2-[acetyl(hydroxy)amino]-2-oxoethyl}-1,3-thiazol-2-yl)carbamate] | 3.61 | 35.88 | 6.5 | 45 | > 100 | 18.8 | 30 | 80 | > 100 | 20 | 75 | > 100 | – | – | –
4 | O=C(CCCCCNC(=O)Cc1csc(NC(=O)OCc2nccs2)n1)NO [Example 96, 1,3-Thiazol-2-ylmethyl[4-(2-{[6-(hydroxyamino)-6-oxohexyl]amino}-2-oxoethyl)-1,3-thiazol-2-yl]carbamate] | 52.41 | 86.63 | > 100 | > 100 | > 100 | >100 | > 100 | > 100 | – | 70 | > 100 | – | > 100 | > 100 | –
5 | O=C(NCc1ccc(C(=O)N2CCN(Cc3ccc4c(c3)OCO4)CC2)cc1)OCc1cccs1 [Example 52, 2-Thienylmethyl(4-{[4-(1,3-benzodioxol-5-ylmethyl)piperazin-1-yl]carbonyl}benzyl)carbamate] | 2.2 | 4.1 | 0.04 | 0.5 | > 100 | 0.6 | 0.4 | 5.8 | – | 1.3 | > 100 | – | > 100 | > 100 | –
6 | Cc1ncsc1COC(=O)Nc1nc(CC(=O)NO)cs1 [Example 8, (4-Methyl-1,3-thiazol-5-yl)methyl{4-[2-(hydroxyamino)-2-oxoethyl]-1,3-thiazol-2-yl}carbamate] | 0.96 | 17.80 | > 100 | > 100 | > 100 | >100 | > 100 | > 100 | > 100 | 0.5 | > 100 | > 100 | – | – | –
7 | O=C(Nc1nc(CC(=O)N2CCOCC2)cs1)OCc1cccnc1 [Example 10, pyridin-3-ylmethyl[4-(2-morpholin-4-yl-2-oxoethyl)-1,3-thiazol-2-yl]carbamate] | −9.85 | 0.14 | 55 | > 100 | > 100 | 26.7 | > 100 | > 100 | – | 0.4 | 27 | – | > 100 | > 100 | –
8 | Nc1ccccc1NC(=O)Cc1csc(NC(=O)OCc2ccncc2)n1 [Example 24, Pyridin-4-ylmethyl(4-{2-[(2-aminophenyl)amino]-2-oxoethyl}-1,3-thiazol-2-yl)carbamate] | 1.34 | 3.17 | > 100 | > 100 | > 100 | >100 | > 100 | > 100 | – | > 100 | > 100 | – | > 100 | > 100 | –
9 | CN(O)C(=O)c1ccc(CNC(=O)OCc2c(F)c(F)c(F)c(F)c2F)cc1 [Example 47, Tentafluorobenzyl(4-{[hydroxy(methyl)amino]carbonyl}benzyl)carbamate] | −5.89 | −2.12 | 56 | > 100 | > 100 | 48.33 | 52 | > 100 | – | 37 | 74 | – | > 100 | > 100 | –
10 | O=C(NCc1ccc(C(=O)NO)cc1)OCc1cccs1 [Example 28, 2-Thienylmethyl{4-[(hydroxyamino)carbonyl]benzyl}carbamate] | 50.8 | 63.3 | 30 | 51 | > 100 | 13 | 5 | 15 | – | 5 | 30 | – | 62 | 70 | 123
11 | COC(CNC(=O)c1ccc(CNC(=O)OCc2cccs2)cc1)OC [Example 53, 2-Thienylmethyl (4-{[(2,2-dimethoxyethyl)amino]carbonyl}benzyl)carbamate] | 4.3 | 1.6 | 0.02 | 1 | > 100 | 2.4 | 0.12 | 6.1 | – | 7.1 | > 100 | – | > 100 | > 100 | –
12 | O=C(CCCCCNC(=O)Cc1csc(NC(=O)OCc2cccnc2)n1)NO [Example 87, pyridin-3-ylmethyl[4-(2-{[6-(hydroxyamino)-6-oxohexyl]amino}-2-oxoethyl)-1,3-thiazol-2-yl]carbamate] | 42.24 | 87.80 | > 100 | > 100 | > 100 | >100 | > 100 | > 100 | – | 10 | > 100 | – | > 100 | > 100 | –
13 | O=C(CCCNC(=O)Cc1csc(NC(=O)OCc2nc3ccccc3s2)n1)NO [Example 91, 1,3-Benzothiazol-2-ylmethyl[4-(2-{[4-(hydroxyamino)-4-oxobutyl]amino}-2-oxoethyl)-1,3-thiazol-2-yl]carbamate] | 10.73 | 25.05 | 35 | > 100 | > 100 | 35.7 | 51 | > 100 | – | 21 | 89 | – | > 100 | > 100 | –
14 | O=C(Cc1csc(NC(=O)OCc2cccnc2)n1)NC1CCN(Cc2ccccc2)CC1 [Example 17, Pyridin-3-ylmethyl(4-{2-[(1-benzylpiperidin-4-yl)amino]-2-oxoethyl}-1,3-thiazol-2-yl)carbamate] | – | 3.61 | 80 | > 100 | > 100 | 54.8 | 82 | > 100 | – | 2.5 | 50 | – | > 100 | > 100 | –
15 | CN(O)C(=O)c1ccc(CNC(=O)OCc2c(F)cc(F)cc2F)cc1 [Example 45, 2,4,6-Trifluorobenzyl(4-{[hydroxy(methyl)amino]carbonyl}benzyl)carbamate] | 4.28 | −0.76 | 90 | > 100 | > 100 | >100 | > 100 | > 100 | – | 2.5 | 65 | – | > 100 | > 100 | –
16 | O=C(Nc1ccc(C(=O)NO)o1)OCc1ccccc1 [Example 75, Benzyl{5-[(hydroxyamino)carbonyl]-2-furyl}carbamate] | – | 6.61 | 100 | > 100 | > 100 | >100 | > 100 | > 100 | – | 9 | 85 | – | > 100 | > 100 | –
